{"source": "paper PMC10103840", "about": "(Frontiers in Pharmacology, 2023)", "key": {"[1]": {"assay": "System adherence test (empty perfusion chamber, maternal circuit only)", "type": "in vitro ADME", "conditions": "% of initial concentration, 5 μM in PM, no placental tissue, 240 min, n = 3", "procedure": "The dissolution and adherence of the compounds to the perfusion equipment and to the tubing system was assessed before starting perfusions with human placentae. […] The compounds were directly dissolved in PM at a final concentration of 5 μM (100 mL reservoir) and individually tested in three independent experiments (n = 3)."}, "[2]": {"assay": "Stability assay in PBS, perfusion medium and placental homogenates", "type": "in vitro ADME, human", "conditions": "360 min", "procedure": "In short, after spiking the various matrices with the study compounds, samples were either processed immediately for U(H)PLC-MS/MS analysis (C0), or kept at 4°C/37°C on an orbital shaker (600 rpm) for 360 min before processing for U(H)PLC-MS/MS analysis. Samples were processed via solid phase extraction or protein precipitation prior to analysis."}, "[3]": {"tested_on": "placental tissue", "assay": "Histopathological evaluation of perfused placentae", "parameters": "species or system human", "procedure": "Immediately after perfusion the placentae were fixed in 4% paraformaldehyde for at least 24 h. Tissue samples from representative placental tissue sections, each from perfused, non-perfused, and transitional area were prepared to perform a pathological examination. For this purpose, the tissue was embedded in paraffin, cut (∅ 2-3 µm), and stained (standard hematoxylin-eosin stain, Braun-Brenn modified Gram stain) according to the standards of routine histopathological diagnosis of the Department of Pathology and Molecular Pathology (University Hospital of Zurich). […] The blood void and width of the intervillous space and fetal blood vessels in the chorionic villi provided information about the quality of perfusion, and particular attention was paid to the presence of intravascular thrombi. General signs of degeneration, such as vacuolization of the cytotrophoblast, villous vascular endothelium viability, and formation of hydropic villous changes compared with non-perfused tissue indicated whether tissue damage might have occurred during perfusion. Microscopic effects and placental tissue damage in the perfused area were expressed in relative amounts (%) to the non-perfused tissue."}, "[4]": {"assay": "In vitro Transwell permeability assay across BeWo b30 cell layer", "conditions": "human", "procedure": "(§1) BeWo b30 choriocarcinoma cells were obtained from Dr. Tina Buerki-Thurnherr (Empa, St. Gallen, Switzerland), with permission from Dr. Alan L. Schwartz (Washington University School of Medicine, St. Louis MO, USA), and were cultivated in F-12 K Nut Mix supplemented with 10% heat inactivated FBS, antibiotics (100 U/mL penicillin, 100 µg/mL […]), and 2 mM L-glutamine (all from Gibco). The cells were cultivated in a humidified incubator at 37°C and 5% CO2 atmosphere.\n(§2) BeWo b30 cells were cultured on Transwell® polycarbonate membrane inserts (24-well format; 0.4 μm pore size, 0.33 cm^2 cell growth area, 200 μL apical volume, 1′000 μL basolateral volume; Corning, Sigma-Aldrich) at a density of 60′000 cells/well. These inserts were then cultivated in a cellZscope (nanoAnalytics) at 37°C/5% CO2. Cell culture medium was replaced every 2 days up to 11 days to find the best possible conditions.\n(§3) BeWo b30 cells were cultured in transparent 24-well plates under the same conditions as mentioned above and transferred to the cellZscope® at day 8 to record TER and Ccl values. After 24 h (day 9) and when a TER of 30–60 Ωcm^2 was reached and Ccl was between 0.5 and 5.0 μF/cm^2, the permeability assay was initiated by adding valerenic acid (5 μM; in HBSS with 4% BSA) to the apical compartment, while the basolateral compartment contained 1′000 μL of HBSS only. […] Samples (150 μL apical, 800 μL basolateral) were collected at each time point (0, 15, 30, 60 min; one insert per time point). After 60 min, a part of the inserts was transferred back to the cellZscope® to monitor TER and Ccl values during another 24 h. The cells grown on the other part of the inserts were quickly washed with 200 μL of cold HBSS and then lysed with 700 μL acetonitrile (100 μL apical, 600 μL basolateral) for 40 min on an orbital shaker (450 rpm, room temperature) to determine the test substance cell contents.\n(§4) Apparent permeability coefficients (Papp) were calculated according to the following Eq. 1: Papp cm/s=∆Q/∆t/ACA0 (1) where ΔQ/Δt is the rate of amount transported to the receiver compartment, A is the membrane surface area (0.33 cm^2), and C A0 is the initial concentration in the apical compartment.\n(§5) The clearance values were calculated according to the following Eq. 2 ([Neuhaus et al., 2008]): Clearance μL=CBnVB/CA−VB/VA∙∑CBn−1 (2) where C Bn and V B are the concentration and volume in the basolateral compartment at a specific timepoint (n), respectively; C A and VA are the concentration and volume in the apical compartment, respectively, and C Bn-1 is the total amount of substance found in the basolateral compartment up to the previous timepoint (n-1).\n(§6) Recovery (mass balance) of each compound was calculated according to the following Eq. 3: Recovery %=CAfVA+CBfVB+CCfVC/CA0VA∙100 (3) where C Af , C Bf and C Cf are the final compound concentrations in apical, basolateral, and cellular compartments, respectively; C A0 is the initial concentration in the apical compartment, and V A , V B and V C are the volumes in the respective compartments.\n(§7) For valerenic acid, 150 µL of the IS in MeOH were added to 50 µL of sample, and the mixture centrifuged for 20 min at 13′200 rpm/16′100 rcf at 10°C (Centrifuge 5415R, Eppendorf). An aliquot (50 µL) of the supernatant was collected and transferred into HPLC vials. Vials were centrifuged for additional 20 min prior to U(H)PLC-MS/MS analysis in full loop mode (2 µL)."}, "[5]": {"tested_on": "BeWo b30 cells", "assay": "In vitro Transwell permeability assay across BeWo b30 cell layer", "procedure": "as §1, §2, §3, §4, §5, §6, §7"}, "[6]": {"tested_on": "human placental barrier"}, "[7]": {"assay": "in vitro", "conditions": "human, pH 7.2"}, "[8]": {"tested_on": "BeWo cells", "conditions": "BeWo b30 cells, ref Spiess et al., 2022b; cited from earlier work"}, "[9]": {"assay": "Transwell control experiments across cell-free inserts", "conditions": "semi-permeable cell-free insert, within 60 min, 5 μM"}, "[10]": {"tested_on": "BeWo b30 cells", "assay": "Sodium fluorescein (NaF) exclusion assay for monolayer formation", "type": "in vitro ADME, human", "conditions": "day 9 after seeding, 5 μM apical, 60 min", "procedure": "Measurement of transepithelial electrical resistance (TER) was used to assess the tightness of a cell-to-cell barrier, and the electrical capacitance Ccl, provided additional information about the properties of the cell layer (e.g., presence of microvilli and other membrane extrusions). TER and Ccl values were recorded in 15 min time intervals, using a cellZscope®. TER values were corrected for the surface area (Ωcm^2) and the reference resistance (well with the same filter insert and medium, but absence of cells). Moreover, a permeability assay with sodium fluorescein (NaF) was performed on days 7–11 (n = 3). The basolateral compartment of a transparent 24-well plate consisted of PBS only (1′000 μL) while NaF (5 μM in PBS; 200 μL) was added to the apical compartment for 60 min. The control consisted of cell-free inserts (n = 3). Basolateral samples (50 μL) were directly added to black Nunc MaxiSorp microtiter plates, and concentrations were determined using a Cytation 3 fluorescence microplate reader (BioTek Instruments; excitation wavelength 460 nm; emission wavelength 515 nm). […]\nhyperforin, h ypericin, and valerenic acid. The compounds were spiked into PBS and then […]\nto avoid interference of any stabilit y issues. […]\nfour independent experiments.\nSupplementary Figure 3. Evaluation of monolayer formation using a sodium fluorescein […]\nControl consists of a cell-free insert […]"}, "[11]": {"conditions": "non-perfused area of same placenta"}, "[12]": {"conditions": "after 240 min of perfusion, 5 μM added to maternal circuit"}}, "note": "“And” between values parts separate entries of the source, which are not always exact repeats. Equal entries are not always repeated.", "data": [{"smiles": "CC1=C2[C@H](/C=C(\\C)C(=O)O)CC[C@@H](C)[C@H]2CC1", "note": "[Valerenic acid, valerenic acid]", "values": [{"measurement": "Compound lost / adhering to the perfusion equipment", "setting": "[1]", "result": "5.6% and 5.6% ± 1.9%"}, {"measurement": "Stability in PBS and PM", "setting": "[2]", "result": "approx. 100%"}, {"measurement": "Global placental pathology: Else", "setting": "[3]", "result": "Formation of artificial cavities in 10% of perfused areas and N and Singular non-occlusive thrombus in stem villus; CCB"}, {"measurement": "Sharp transition perfused/non-perfused", "setting": "[3]", "result": "Y and N"}, {"measurement": "Extravasations into villous stroma (in words)", "setting": "[3]; after perfusion", "result": "no extravasations into villous stroma"}, {"measurement": "Ruptures of villous vessels (in words)", "setting": "[3]; after perfusion", "result": "no ruptures of villous vessels"}, {"measurement": "Emptiness of villous vessels in non-perfused", "setting": "[3]; [11]", "result": "10% and 1%"}, {"measurement": "Hydropic changes in non-perfused", "setting": "[3]; [11]", "result": "5% and 0%"}, {"measurement": "Intervillous spaces without blood in non-perfused", "setting": "[3]; [11]", "result": "70% and 50% and 60% and 40%"}, {"measurement": "Thrombi in villous vessels: in non-perfused too?", "setting": "[3]; [11]", "result": 1, "unit": "%"}, {"measurement": "Vacuolated trophoblast in villi: in non-perfused too?", "setting": "[3]; [11]", "result": "0% and 5%"}, {"measurement": "Thrombi in vessels of stem villi (in words)", "setting": "[3]; perfused and non-perfused", "result": "no thrombi detectable"}, {"measurement": "Dilatated intervillous space", "setting": "[3]; perfused area", "result": "50% and 90% and 70%"}, {"measurement": "Intervillous spaces without blood", "setting": "[3]; perfused area", "result": 95, "unit": "%"}, {"measurement": "Emptiness of villous vessels", "setting": "[3]; perfused area, individual experiments", "result": "95% and 80% (2×) and 90%"}, {"measurement": "recovery at 60 min, 5 μM", "setting": "[4]", "result": 73.7, "unit": "%"}, {"measurement": "Passage across the placental cell layer (in words)", "setting": "[5]; 5 μM apical, HBSS with 4% BSA, 60 min", "result": "did not cross the placental cell layer within 60 min"}, {"measurement": "Papp", "setting": "[5]; apical to basolateral, BeWo b30 cell layer, 5 μM", "result": "zero"}, {"measurement": "Concentration in the fetal compartment", "setting": "[6]; [12]", "result": "44.0 % of initial concentration"}, {"measurement": "Concentration in the maternal compartment", "setting": "[6]; [12]", "result": "45.0 % of initial concentration"}, {"measurement": "Sampling (% found)", "setting": "[6]; amount removed by sampling during 240 min perfusion", "result": "24.1 ± 4.8", "unit": "%"}, {"measurement": "F perfusate (% found)", "setting": "[6]; fetal perfusate after 240 min, % of amount in maternal sample at beginning", "result": "33.1 ± 10.7% and 33.1%"}, {"measurement": "FM ratio at 240 min", "setting": "[6]; fetal/maternal concentration ratio, 240 min, antipyrine from control perfusions", "result": 1.01}, {"measurement": "M perfusate (% found)", "setting": "[6]; maternal perfusate after 240 min, % of amount in maternal sample at beginning", "result": 34.4, "unit": "%"}, {"measurement": "Time to equilibrium between fetal and maternal compartment", "setting": "[6]; perfusion profiles, antipyrine as connectivity control", "result": 240, "unit": "min"}, {"measurement": "recovery at 240 min, 5 μM", "setting": "[7]", "result": 91.5, "unit": "%"}, {"measurement": "Concentrations not lowering viability, no increase in apoptosis or genotoxicity, no negative effect on metabolic activity and cell differentiation", "setting": "[8]", "result": "up to 30 μM"}, {"measurement": "Clearance across cell-free insert", "setting": "[9]", "result": 28.3, "unit": "µL"}]}, {"smiles": "O=C([O-])c1ccccc1-c1c2ccc(=O)cc-2oc2cc([O-])ccc12.[Na+].[Na+]", "note": "[NaF, sodium fluorescein]", "values": [{"measurement": "Basolateral amount of NaF", "setting": "[10]", "result": "2.8 % of the initial NaF concentration"}]}]}
